Measured values reported in US11440898B2, “Isoquinoline compounds, methods for their preparation, and therapeutic uses thereof in conditions associated with the alteration of the activity of beta galactosidase” (Minoryx Therapeutics S.L., priority 2016, dated 2022).

Biological target: T1, mutated beta-galactosidase (p.R60H canine GLB1) in GM11473 fibroblasts (Canis lupus familiaris, UniProt Q9TRY9, R60H)
T1 construct: host or cells: GM11473 canine GM1 gangliosidosis fibroblasts
T1 sequence (Q9TRY9 30-668 R60H): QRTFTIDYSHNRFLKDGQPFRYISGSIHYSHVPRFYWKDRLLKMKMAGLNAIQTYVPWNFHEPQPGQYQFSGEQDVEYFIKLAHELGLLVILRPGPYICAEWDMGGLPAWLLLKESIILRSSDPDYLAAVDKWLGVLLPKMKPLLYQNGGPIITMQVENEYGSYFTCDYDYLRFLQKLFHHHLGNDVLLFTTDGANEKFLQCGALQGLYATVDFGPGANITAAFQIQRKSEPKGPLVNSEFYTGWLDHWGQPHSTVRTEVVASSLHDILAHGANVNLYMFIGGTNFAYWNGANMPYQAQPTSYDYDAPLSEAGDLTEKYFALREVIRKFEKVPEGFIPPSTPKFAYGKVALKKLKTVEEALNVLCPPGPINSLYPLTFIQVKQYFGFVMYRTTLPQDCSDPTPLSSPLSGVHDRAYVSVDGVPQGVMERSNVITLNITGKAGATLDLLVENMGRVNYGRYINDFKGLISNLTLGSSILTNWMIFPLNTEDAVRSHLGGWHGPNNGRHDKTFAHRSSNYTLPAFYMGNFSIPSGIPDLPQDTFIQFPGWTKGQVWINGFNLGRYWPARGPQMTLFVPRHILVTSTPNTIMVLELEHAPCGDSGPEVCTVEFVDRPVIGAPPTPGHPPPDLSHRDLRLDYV
Experiment: Enhancement of β-galactosidase activity measured in GM1 fibroblasts (GM11473), 4-MU-β-D-galactopyranoside substrate
Type: cell-based
Set-up: key: Increase in comparison with non-treated of >2.5 fold is shown as A; Increase in comparison with non-treated of >1.7-2.5 fold is shown as B; Increase in comparison with non-treated of 1.2-1.7 fold is shown as C; D means that no increase compared with non-treated cells was detected in this method
Conditions: increase in β-galactosidase enzyme activity vs non-treated cells, concentrations between 6 and 50 μM, 4 days incubation
Protocol: The capacity of the Compounds of the Disclosure to enhance mutated beta-galactosidase activity levels in GM1 fibroblasts was assayed as follows.
Fibroblasts homozygous for a GM1 gangliosidosis missense mutation (GM11473) (canine fibroblasts homozygous for the GM1 gangliosidosis missense mutation p.R60H equivalent to human p.R59H mutation) were purchased from Coriell Institute for Medical Research (Camden, N.J., USA).
Fibroblasts were seeded at 4×10^4 cells per well in 12-well cell culture plates in Dulbecco's Modified Eagle's Media (DMEM) supplemented with 10% of fetal bovine serum (FBS), 1% penicillin/streptomycin (P/S) (Thermo Fisher Scientific, Waltham, Mass., USA) and incubated at 37° C., 5% CO2 overnight for cell attachment. Subsequently, cells were incubated in the absence or presence of the compounds at the desired concentration for 4 days. After incubation, cells were washed twice with phosphate-buffered saline (“PBS”) and detached using Trypsin-EDTA solution (Sigma Aldrich, St. Louis, Mo., USA) to prepare cell pellets. The pellets were stored at −80° C. until activity assays were performed.
β-Galactosidase activity in cell lysates was measured by using 4-Methylumbelliferyl-β-D-galactopyranoside substrate (Sigma Aldrich, St. Louis, Mo., USA). Briefly, lysates were resuspended in 200 μL of 0.9% NaCl containing 0.01% triton X-100 lysis buffer to promote membrane disruption. The cell suspension was sonicated and centrifuged to remove insoluble materials. Then, lysates were mixed with 4-MU-β-D-galactopyranoside in 100 mM citrate buffer (pH=4) and 100 mM NaCl for 60 min at 37° C. The reaction was terminated by adding 100 mM glycine-NaOH buffer (pH=10.7). The liberated 4-MU was measured on a GloMax Discover plate reader (Promega, Madison, Wis., USA) with excitation at 340 nm and emission at 460 nm. Protein quantification was determined using Pierce BCA Protein Assay Kit (Thermo Fisher Scientific, Waltham, Mass., USA). Measurements were interpolated in a 4-MU standard curve and normalized by protein quantity. Enzyme activities were expressed in treated cells as X-fold increase in comparison with non-treated cells (X=1 represents no enhancement).
The capacity of the Compounds of the Disclosure to produce an increase in β-galactosidase enzyme activity in canine GM1 fibroblasts bearing p.R60H canine GLB1 mutation at concentrations between 6 and 50 μM is denoted as follows: • Increase in comparison with non-treated of >2.5 fold is shown as A. • Increase in comparison with non-treated of >1.7-2.5 fold is shown as B. • Increase in comparison with non-treated of 1.2-1.7 fold is shown as C. • D means that no increase compared with non-treated cells was detected in this method. • ND means “not determined.”

| Structure (SMILES) | Activity in GM11473 fibroblasts |
| --- | --- |
| O=C(NCc1ccccc1)c1ccc(Nc2nccc3ccc(Cl)cc23)cn1 [Example 29, N-benzyl-5-((7-chloroisoquinolin-1-yl)amino)picolinamide] | A (Increase in comparison with non-treated of >2.5 fold is shown as A) |
| COc1ccc(CNC(=O)c2ccc(Nc3nccc4ccc(Cl)cc34)cn2)cc1 [Example 30, 5-((7-Chloroisoquinolin-1-yl)amino)-N-(4-methoxybenzyl)picolinamide] | B (Increase in comparison with non-treated of >1.7-2.5 fold is shown as B) |
| COc1cccc(CNC(=O)c2ccc(Nc3nccc4ccc(Cl)cc34)cn2)c1 [Example 31, 5-((7-Chloroisoquinolin-1-yl)amino)-N-(3-methoxybenzyl)picolinamide] | B (Increase in comparison with non-treated of >1.7-2.5 fold is shown as B) |
| COc1ccc(CNC(=O)c2ccc(Nc3nccc4ccc(Cl)cc34)cn2)cc1OC [Example 32, 5-((7-Chloroisoquinolin-1-yl)amino)-N-(3,4-dimethoxybenzyl)picolinamide] | C (Increase in comparison with non-treated of 1.2-1.7 fold is shown as C) |
| O=C(NC1CCc2ccccc2C1)c1ccc(Nc2nccc3ccc(Cl)cc23)cn1 (centres unmarked) [Example 34, 5-((7-Chloroisoquinolin-1-yl)amino)-N-(1,2,3,4-tetrahydronaphthalen-2-yl)picolinamide] | A (Increase in comparison with non-treated of >2.5 fold is shown as A) |
| O=C(NCc1ccc2c(c1)OCCCO2)c1ccc(Nc2nccc3ccc(Cl)cc23)cn1 [Example 35, 5-((7-Chloroisoquinolin-1-yl)amino)-N-((3,4-dihydro-2H-benzo[b][1,4]dioxepin-7-yl)methyl)picolinamide] | C (Increase in comparison with non-treated of 1.2-1.7 fold is shown as C) |
| O=C(NCc1ccc2c(c1)CCO2)c1ccc(Nc2nccc3ccc(Cl)cc23)cn1 [Example 36, 5-((7-Chloroisoquinolin-1-yl)amino)-N-((2,3-dihydrobenzofuran-5-yl)methyl)picolinamide] | C (Increase in comparison with non-treated of 1.2-1.7 fold is shown as C) |
| O=C(NCc1ccc2c(c1)OCO2)c1ccc(Nc2nccc3ccc(Cl)cc23)cn1 [Example 37, N-(benzo[d][1,3]dioxol-5-ylmethyl)-5-((7-chloroisoquinolin-1-yl)amino)picolinamide] | D |
| O=C(NCCc1ccc2c(c1)OCCO2)c1ccc(Nc2nccc3ccc(Cl)cc23)cn1 [Example 38, 5-((7-Chloroisoquinolin-1-yl)amino)-N-(2-(2,3-dihydrobenzo[b][1,4]dioxin-6-yl)ethyl)picolinamide] | D |
| O=C(NCc1ccc2c(c1)CCCO2)c1ccc(Nc2nccc3ccc(Cl)cc23)cn1 [Example 39, 5-((7-Chloroisoquinolin-1-yl)amino)-N-(chroman-6-ylmethyl)picolinamide] | B (Increase in comparison with non-treated of >1.7-2.5 fold is shown as B) |
| COc1ccc2c(c1)CCC(NC(=O)c1ccc(Nc3nccc4ccc(Cl)cc34)cn1)C2 (centres unmarked) [Example 40, 5-((7-Chloroisoquinolin-1-yl)amino)-N-(6-methoxy-1,2,3,4-tetrahydronaphthalen-2-yl)picolinamide] | B (Increase in comparison with non-treated of >1.7-2.5 fold is shown as B) |
| O=C(NCC1CCc2ccccc2C1)c1ccc(Nc2nccc3ccc(Cl)cc23)cn1 (centres unmarked) [Example 41, 5-((7-Chloroisoquinolin-1-yl)amino)-N-((1,2,3,4-tetrahydronaphthalen-2-yl)methyl)picolinamide] | B (Increase in comparison with non-treated of >1.7-2.5 fold is shown as B) |
| COc1ccc2ccnc(Nc3ccc(C(=O)NC4CCc5ccccc5C4)nc3)c2c1 (centres unmarked) [Example 45, 5-((7-Methoxyisoquinolin-1-yl)amino)-N-(1,2,3,4-tetrahydronaphthalen-2-yl)picolinamide] | C (Increase in comparison with non-treated of 1.2-1.7 fold is shown as C) |
| COc1ccc2c(c1)CCC(NC(=O)c1ccc(Nc3nccc4ccc(OC)cc34)cn1)C2 (centres unmarked) [Example 46, N-(6-methoxy-1,2,3,4-tetrahydronaphthalen-2-yl)-5-((7-methoxyisoquinolin-1-yl)amino)picolinamide] | C (Increase in comparison with non-treated of 1.2-1.7 fold is shown as C) |
| COc1ccc2ccnc(Nc3ccc(C(=O)NCC4CCc5ccccc5C4)nc3)c2c1 (centres unmarked) [Example 47, 5-((7-Methoxyisoquinolin-1-yl)amino)-N-((1,2,3,4-tetrahydronaphthalen-2-yl)methyl)picolinamide] | B (Increase in comparison with non-treated of >1.7-2.5 fold is shown as B) |
| N#Cc1ccc2ccnc(Nc3ccc(C(=O)NC4CCc5ccccc5C4)nc3)c2c1 (centres unmarked) [Example 48, 5-((7-Cyanoisoquinolin-1-yl)amino)-N-(1,2,3,4-tetrahydronaphthalen-2-yl)picolinamide] | A (Increase in comparison with non-treated of >2.5 fold is shown as A) |
| N#Cc1ccc2ccnc(Nc3ccc(C(=O)NCc4ccc5nsnc5c4)nc3)c2c1 [Example 50, N-(benzo[c][1,2,5]thiadiazol-5-ylmethyl)-5-((7-cyanoisoquinolin-1-yl)amino)picolinamide] | C (Increase in comparison with non-treated of 1.2-1.7 fold is shown as C) |
| O=C(NCC(c1cccnc1)N1CCCC1)c1ccc(Nc2nccc3ccc(Cl)cc23)nc1 (centres unmarked) [Example 53, 6-((7-Chloroisoquinolin-1-yl)amino)-N-(2-(pyridin-3-yl)-2-(pyrrolidin-1-yl)ethyl)nicotinamide] | C (Increase in comparison with non-treated of 1.2-1.7 fold is shown as C) |
| O=C(NCc1ccc2c(c1)OCCO2)c1ccc(Nc2nccc3ccc(Cl)cc23)nc1 [Example 54, 6-((7-Chloroisoquinolin-1-yl)amino)-N-((2,3-dihydrobenzo[b][1,4]dioxin-6-yl)methyl)nicotinamide] | C (Increase in comparison with non-treated of 1.2-1.7 fold is shown as C) |
| O=C(NCc1ccccc1)c1ccc(Nc2nccc3ccc(Cl)cc23)nc1 [Example 55, N-benzyl-6-((7-chloroisoquinolin-1-yl)amino)nicotinamide] | C (Increase in comparison with non-treated of 1.2-1.7 fold is shown as C) |
| COc1ccc(CNC(=O)c2ccc(Nc3nccc4ccc(Cl)cc34)nc2)cc1 [Example 56, 6-((7-Chloroisoquinolin-1-yl)amino)-N-(4-methoxybenzyl)nicotinamide] | D |
| COc1cccc(CNC(=O)c2ccc(Nc3nccc4ccc(Cl)cc34)nc2)c1 [Example 57, 6-((7-Chloroisoquinolin-1-yl)amino)-N-(3-methoxybenzyl)nicotinamide] | C (Increase in comparison with non-treated of 1.2-1.7 fold is shown as C) |
| O=C(NCc1ccc2nsnc2c1)c1ccc(Nc2nccc3ccc(Cl)cc23)nc1 [Example 59, N-(benzo[c][1,2,5]thiadiazol-5-ylmethyl)-6-((7-chloroisoquinolin-1-yl)amino)nicotinamide] | C (Increase in comparison with non-treated of 1.2-1.7 fold is shown as C) |
